Non-standard residues stand in square brackets, D forms with d. Residues, ends and D or L forms follow the SMILES beside them. Nle = CCCC[C@H](N)C(=O)O
Columns and labels:
[1] = target: T1, catalytic subunit β1 of a proteasome (caspase-like activity) (Homo sapiens, UniProt P28072); settings: reported by Kaiser et al., Chem. Bio. Chem., 2004; cited from earlier work
T1 construct: purchased Bioscience

[2] = target: T2, catalytic subunit β2 of the proteasome (trypsin-like activity) (Homo sapiens, UniProt Q99436); experiment: 20S Proteasome StressXpress Assay Kit, AMC substrate, β2; type: biochemical
T2 construct: purchased Bioscience
Description: (§1) In Reference Example 2, the proteasome inhibitory activity of TMP-CANDDY_DMT and the affinity of TMP-CANDDY_DMT with a proteasome were evaluated. As a positive control, MG-132 as a proteasome inhibitor was used.
(§2) For evaluation, 20S Proteasome StressXpress™ Assay Kit Gold (Bioscience) was used. AMC was measured by using Multi-Detection Microplate Reader (Synergy HT, BIO-TEK). The AMC was produced by cleaving the C-terminus of an AMC-binding proteasome fluorescence substrate specific to β subunits of a 20S proteasome, including β5 (chymotrypsin-like activity), β2 (trypsin-like activity), and β1 (caspase-like activity). The measuring wavelengths were 360 nm for excitation light (Ex.), and 460 nm for fluorescence (Em.).
(§3) In Reference Example 6, as in Reference Example 2, a proteasome inhibitory activity of TMP-CANDDY_ALLN and an affinity of TMP-CANDDY_ALLN with a proteasome were evaluated.

[3] = target: T1, catalytic subunit β1 of a proteasome (caspase-like activity); experiment: 20S Proteasome StressXpress Assay Kit, AMC substrate, β1; type: biochemical
Description: as §1, §2, §3

[4] = target: T3, catalytic subunit β5 of the proteasome (chymotrypsin-like activity) (Homo sapiens, UniProt P28074); experiment: 20S Proteasome StressXpress Assay Kit, AMC substrate, β5; type: biochemical
T3 construct: purchased Bioscience
Description: as §1, §2, §3

20S proteasome = target: T4, 20S proteasome (Homo sapiens, UniProt P28072+P28074+Q99436); experiment: Affinity with a proteasome, evaluated from the 20S proteasome activity assay; type: biochemical; settings: concluded from the concentration dependent inhibitory activity
T4 construct: purchased Bioscience
Description: as §1, §2, §3

[5] = tested on: ecDHFR protein (fusion protein of an ecDHFR protein and GFP through a HA tag); type: cell-based, human; settings: HeLa cells, 24 hours after addition, vs DMSO control
[6] = tested on: ecDHFR protein (fusion protein of an ecDHFR protein and GFP through a HA tag); experiment: Western blot of degradation of forcibly expressed ecDHFR protein in HeLa cells; type: cell-based, human
[7] = tested on: senescence-associated acidic β-galactosidase (SA-β-gal) inducing TIG3 cells; experiment: FACS analysis of SA-β-gal in doxorubicin senescence-induced TIG3 cells (anti-aging action); type: cell-based, human; settings: doxorubicin 150 nM alone vs no doxorubicin
Description: In Example 5, an anti-aging action in a senescence-associated acidic β-galactosidase (SA-β-gal) inducing TIG3 cells (human embryonic fibroblast) in which TIBC-CANDDY_MLN had been added was evaluated by FACS analysis.
TIG3 cells as normal cells were seeded in a 24-well plate at a cell density of 8×10^4 cells/well, and then cultured under conditions of 37° C. and 5 vol % CO2 for 16 hours.
After 16 hours from cell seeding, doxorubicin was added to each well at 150 nM/well to induce cellular senescence. As a medium, a serum-free medium (37° C.) in which 1 mass % L-glutamine solution (Sigma-Aldrich) was added to D-MEM (high D-glucose, phenol red, sodium pyruvate (Wako Pure Chemical Industries, Ltd.)) was used. It is noted that the L-glutamine solution was added immediately before use. After the addition of doxorubicin, culture was performed under conditions of 37° C. and 5 vol % CO2 for 24 hours.
After 24 hours from induction of senescence, TIBC-CANDDY_MLN was added to TIG3 cells as follows. As a medium, a serum-free medium (37° C.) in which 1 mass % L-glutamine solution (Sigma-Aldrich) was added to D-MEM (high D-glucose, phenol red, sodium pyruvate (Wako Pure Chemical Industries, Ltd.)) was used. It is noted that the L-glutamine solution was added immediately before use. A DMSO solution containing TIBC-CANDDY_MLN was mixed with the medium so that the concentration of DMSO was 1 vol %, and added to each well at 500 μL/well, and cultured under conditions of 37° C. and 5 vol % CO2 for 48 hours. As a control, DMSO was used.
For quantification of SA-β-gal as a senescence marker, a commercially available kit (Cellular Senescence Detection Kit-SPiDER-βGal (DOJINDO LABORATORIES)) was used. […]
A BD FACSCanto™ II (BD Biosciences) was used for flow cytometry to detect SA-β-gal labeled with FITC. […] A histogram of the FITC strength was created by an analysis software FlowJo™ (TOMY Digital Biology Co., Ltd.), and the senescence suppressing action by TIBC-CANDDY_MLN was evaluated from a shift in the histogram.

| SMILES | inhibition of β1 [1] | concentration dependence of inhibitory activity against β2 [2] | proteasome inhibitory activity against β2 compared with the reference proteasome inhibitor [2] | concentration dependence of inhibitory activity against β1 [3] | concentration dependence of inhibitory activity against β5 [4] | proteasome inhibitory activity against β5 compared with the reference proteasome inhibitor [4] | affinity with a proteasome (20S proteasome) | degradation (knockdown) of the ecDHFR protein (shift of GFP/DsRed graph, FACS) [5] | proteasome inhibitory activity against β1 compared with the reference proteasome inhibitor [3] | amount of the ecDHFR protein (Western blot) ([6]; 24 hours after addition, cycloheximide 50 μg/mL added at 12 hours) | degradation of the ecDHFR protein when bortezomib is added as well ([6]; both TMP-CANDDY_DMT and bortezomib added, compared with TMP-CANDDY_DMT alone) | shift to SA-β-gal (senescence marker) positive (FACS histogram) [7] |
| --- | --- | --- | --- | --- | --- | --- | --- | --- | --- | --- | --- | --- |
| CCCC[C@@H](C=O)NC(=O)[C@H](CC(C)C)NC(=O)[C@H](CC(C)C)NC(C)=O [ALLN, Calpain Inhibitor I] (Ac-Leu-Leu-[Nle]-aldehyde) | not inhibited |  |  |  |  |  |  |  |  |  |  |  |
| CCCC[C@H](NC(=O)[C@H](CC(C)C)NC(=O)[C@H](CC(C)C)NC(C)=O)C(=O)NCCCCCCNC(=O)COc1c(OC)cc(Cc2cnc(N)nc2N)cc1OC [TMP-CANDDY_ALLN] |  | in a concentration dependent manner | the inhibitory activity was weakened | in a concentration dependent manner | in a concentration dependent manner | the inhibitory activity was weakened | had an affinity with a proteasome | degradation of the ecDHFR protein was induced |  |  |  |  |
| COc1nc(NCCCCCCNC(=O)COc2c(OC)cc(Cc3cnc(N)nc3N)cc2OC)nc(OC)n1 [TMP-CANDDY_DMT] |  | increased in a concentration dependent manner | significantly lower proteasome inhibitory activity as compared with MG-132 | increased in a concentration dependent manner | increased in a concentration dependent manner | significantly lower proteasome inhibitory activity as compared with MG-132 | moderate affinity | degradation of the ecDHFR protein was induced | significantly lower proteasome inhibitory activity as compared with MG-132 | reduced | degradation of the ecDHFR protein was inhibited |  |
| COc1cccc2c1C(=O)c1c(O)c3c(c(O)c1C2=O)C[C@@](O)(C(=O)CO)C[C@@H]3O[C@H]1C[C@H](N)[C@H](O)[C@H](C)O1 [doxorubicin, reference compound] |  |  |  |  |  |  |  |  |  |  |  | a shift to SA-β-gal (senescence marker) positive was observed |

From patent US11007269B2, “P53 degradation inducing molecule and pharmaceutical composition” (Tokyo University of Science Foundation, priority 2016, dated 2021)
